How the values were obtained:
[1] = system: AF9, AFF4, cyclin-T1, DOT1L; assay: Other SEC-related proteins in nucleus of MV4;11 cells (Western blot); type: cell-based; settings: 4 days
Description: We further investigated how compound 1 affects ENL, AF9 and other proteins of SEC in the cytoplasmic and nuclear compartments, the latter of which are more relevant to the functions of these transcription cofactors. […] Upon treatment of MV4;11 cells with these compounds for 4 days, cytoplasmic and nuclear proteins were separated and subjected to SDS-PAGE/Western blot. […] In addition, nuclear levels of H3K79 methylation, the product of DOT1L catalyzed reactions, were not consistently affected by compound 1.
(§1) 3 × 10^6 cells/well were treated with increasing concentrations of a compound for 1 day, and whole proteins were extracted. Equal amounts of proteins were separated on SDS-PAGE and transferred to PVDF membranes. The blots were probed with primary antibodies, followed by anti-rabbit IgG (Thermo Scientific) secondary antibodies. The primary antibodies against ENL (Cell signaling #14893), AF9 (Novusbio #NB100-1565), DOT1L (Cell signaling #77087), AFF4 (Abcam #ab103586), Cyclin T1 (Cell signaling #81464), H3K79me2 (Cell signaling #5427), H3K79me1 (Cell signaling #9398), Histone H3 (Cell signaling #4499), FLAG (Sigma-Aldrich #F1804), β-Actin (Cell signaling #4970) were used in this study.

[2] = system: AF9, AFF4, cyclin-T1 and H3K79me2; assay: ChIP-qPCR, AF9, AFF4, cyclin-T1 and H3K79me2 at gene promoters of Myc and HoxA9; type: cell-based; settings: MV4;11 cells, 500 nM, 4 days
Experimental: Chromatin immunoprecipitation (ChIP) followed by qPCR was used to further probe the activity of compound 1 in the gene promoters of Myc and HoxA9, two characteristic MLL1 target genes.
Upon treatment with a compound for 4 days, 10^7 MV4;11 cells were cross-linked with 1% formaldehyde at room temperature for 10 min, followed by the addition of 125 mM glycine. Cells were lysed with nuclear lysis buffer and sonicated to ~ 100–1000 bp fragments, which was incubated at 4 °C overnight with an antibody and IgG (C15410206, Diagenode). Protein A/G Magnetic Beads (10 µL, Novus Biologicals) were added and incubated for 2 h. The beads were washed 3 × with RIPA buffer and 2 × with TE buffer. DNA on the beads was eluted for 2 h at 68 °C in 100 μL of an elution buffer (20 mM Tris pH 7.5, 5 mM EDTA, 50 mM NaCl, 1% SDS, 50 μg/mL proteinase K) (2 ×), and purified using a ChIP DNA Clean & Concentrator kit (Novus Biologicals). qPCR was done using the method described above.

HoxA9, Meis1 and Myc = assay: qPCR expression of HoxA9, Meis1 and Myc in Molm-13 cells; type: cell-based; settings: 4 days
Experimental: Previous studies show ENL is required for expression of MLL1-target genes in MLL1-r leukemia. How compound 1-mediated ENL degradation changes expression of HoxA9, Meis1 and Myc, three characteristic genes in MLL1-r leukemia, was examined. Molm-13 cells were treated with compound 1 for 4 days, after which the RNAs were extracted and analyzed.
10^5 cells/mL were incubated with a compound for 4 days and the RNA was extracted using RNeasy mini kit (#74104, Qiagen). 100–1000 ng of total RNA was reverse transcribed using iScript™ Reverse Transcription Supermix (Bio-Rad) using the manufacturer’s protocol. Quantitative real-time PCR was carried out using Fast SYBR Green Master Mix (Applied Biosystems) according to the manufacturer’s instructions. Measurements were performed in triplicate, using GAPDH as the reference gene. Real-time PCR was performed using Biosystems Step One Plus detection system. The following sequences of primers are used: • MYC (forward: 5′-[…]-3′; reverse: 5′-[…]-3′); • HoxA9 (forward: 5′-[…]-3′; reverse: 5′-[…]-3′); • Meis1 (forward: 5′-[…]-3′; reverse: 5′-[…]-3′); • GAPDH (forward: 5′-[…]-3′; reverse: 5′-[…]-3′).

[3] = system: blood and solid tumor cells; assay: Antiproliferation assay, ranges given over several cell lines; type: cell-based; settings: AML Kasumi-1, myeloma RPMI-8226 and U266; read-out: EC50 against Kasumi-1, RPMI-8226 and U266 cells (range over cell lines)
Experimental: (§2) Proliferation inhibition assays for suspension blood cancer cells were performed using an XTT assay kit (Biotium), following our previous methods [22]. EC50 values were determined using Prism 5 and from at least three independent experiments.

ENL [4] = biological target: T1, ENL (Homo sapiens, UniProt Q03111); assay: ENL degradation in Molm-13 cells (Western blot); type: cell-based; set-up: endogenous in cells; settings: MOLM-13, Molm-13 cells, 24 h
T1 sequence (Q03111 1-559): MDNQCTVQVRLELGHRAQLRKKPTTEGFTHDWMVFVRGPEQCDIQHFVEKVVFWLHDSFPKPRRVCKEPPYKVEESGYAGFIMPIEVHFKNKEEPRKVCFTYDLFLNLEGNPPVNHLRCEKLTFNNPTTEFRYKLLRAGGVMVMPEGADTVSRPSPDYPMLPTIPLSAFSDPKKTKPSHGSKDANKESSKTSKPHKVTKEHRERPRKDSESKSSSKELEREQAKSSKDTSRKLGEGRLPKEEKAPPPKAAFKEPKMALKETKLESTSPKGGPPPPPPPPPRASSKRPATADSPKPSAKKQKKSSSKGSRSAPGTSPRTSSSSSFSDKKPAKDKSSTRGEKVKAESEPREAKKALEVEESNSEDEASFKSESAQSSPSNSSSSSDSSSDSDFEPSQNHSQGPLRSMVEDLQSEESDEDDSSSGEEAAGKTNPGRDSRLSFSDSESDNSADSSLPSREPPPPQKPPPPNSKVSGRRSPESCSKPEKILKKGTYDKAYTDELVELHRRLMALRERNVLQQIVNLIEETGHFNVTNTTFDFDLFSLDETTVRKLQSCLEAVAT
Experimental: In addition, compound 1 efficiently degraded ENL in another MLL1-r leukemia Molm-13 cells (with MLL1-AF9) with DC50 of 47 nM and Dmax of ~ 88% (Fig. 3e). Moreover, significant ENL degradation can be detected in 2 h and depletion occurred within 24 h (Fig. 3f).
as §1

Molm-13 cells = assay: Antiproliferation assay (XTT), Molm-13
Experimental: as §2

ENL [5] = biological target: T1, ENL; assay: ENL in nucleus and cytoplasm of MV4;11 cells (Western blot); type: cell-based; set-up: endogenous in cells; host or cells: MV4;11; settings: 4 days
Experimental: Upon treatment of MV4;11 cells with these compounds for 4 days, cytoplasmic and nuclear proteins were separated and subjected to SDS-PAGE/Western blot.
3 × 10^6 cells/well were treated with increasing concentrations of a compound for 1 day, and whole proteins were extracted. Equal amounts of proteins were separated on SDS-PAGE and transferred to PVDF membranes. The blots were probed with primary antibodies, followed by anti-rabbit IgG (Thermo Scientific) secondary antibodies.

## C[C@H]1CCCN1Cc1nc2cc(NC(=O)c3ccc4c(cnn4CCCCCCCCNc4cccc5c4C(=O)N(C4CCC(=O)NC4=O)C5=O)c3)ccc2[nH]1 (stereo partly drawn) [Compound 1]
[1]
  Levels of AF9, AFF4, cyclin-T1 and DOT1L: not significantly decreased
[2]
  AF9, AFF4, cyclin-T1 and H3K79me2 at gene promoters of Myc and HoxA9: did not significantly lower down
HoxA9, Meis1 and Myc
  Expression of HoxA9, Meis1 and Myc: significantly inhibit expression
[3]
  EC50: 1100 to 4100 nM
ENL [4]
  Dmax: 88%
Molm-13 cells; Homo sapiens, MOLM-13, 168 h, read-out: EC50 against proliferation of Molm-13 cells
  EC50: 320 nM
Molm-13 cells; Molm-13 cells
  Time-dependent activity against cell proliferation: did not inhibit cell proliferation during the first 4 days
ENL [5]
  ENL level in the cytoplasmic extract: significantly reduced
ENL [5]; compound 1 at 500 nM
  ENL level in the nucleus: almost depleted
